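Briefly, cells in 96-well plates were exposed to five compound concentrations for 48 h, and endpoints were estimated by linear interpolation. Abbreviation: GI50, concentration required for 50% inhibition of growth.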 Activity calls are given as the source filed them. Cut-off read from the data, not from the text of the source: active = GI50 up to about 1.1 µM and inactive = higher.
Assays:
Experiment in all cases: growth of human tumour cells (NCI), 48 h
A498 = system: A498
CCRF-CEM = system: CCRF-CEM
COLO 205 = system: COLO 205
DLD-1 = system: DLD-1
EKVX = system: EKVX
NCI-H23 = system: NCI-H23
OVCAR-4 = system: OVCAR-4
OVCAR-5 = system: OVCAR-5
OVCAR-8 = system: OVCAR-8
RPMI-8226 = system: RPMI-8226
SF-539 = system: SF-539
SK-MEL-28 = system: SK-MEL-28
SW-620 = system: SW-620
TK-10 = system: TK-10
UACC-257 = system: UACC-257
DU-145 = system: DU-145
MCF7 = system: MCF7
MDA-MB-435 = system: MDA-MB-435
NCI/ADR-RES = system: NCI/ADR-RES
SNB-75 = system: SNB-75

SMILES: C[N+](C)(C)CC1CCCC/C1=N\O (stereo unspecified)
- GI50 (A498): > 100 µM (inactive)
- GI50 (CCRF-CEM): > 100 µM (inactive)
- GI50 (COLO 205): > 100 µM (inactive)
- GI50 (DLD-1): > 100 µM (inactive)
- GI50 (EKVX): > 100 µM (inactive)
- GI50 (NCI-H23): > 100 µM (inactive)
- GI50 (OVCAR-4): > 100 µM (inactive)
- GI50 (OVCAR-5): > 100 µM (inactive)
- GI50 (OVCAR-8): > 100 µM (inactive)
- GI50 (RPMI-8226): > 100 µM (inactive)
- GI50 (SF-539): > 100 µM (inactive)
- GI50 (SK-MEL-28): > 100 µM (inactive)
- GI50 (SW-620): > 100 µM (inactive)
- GI50 (TK-10): > 100 µM (inactive)
- GI50 (UACC-257): > 100 µM (inactive)

SMILES: O=C1C[C@H](Sc2ccccc2)C2(OCCO2)[C@H]2ON3CCC[C@@H]3[C@@H]12
- GI50 (A498): 13.2 µM (inactive)
- GI50 (CCRF-CEM): 0.127 µM (active)
- GI50 (COLO 205): 1.66 µM (inactive)
- GI50 (DU-145): 2.61 µM (inactive)
- GI50 (EKVX): 2.53 µM (inactive)
- GI50 (MCF7): 1.12 µM (inactive)
- GI50 (MDA-MB-435): 1.67 µM (inactive)
- GI50 (NCI-H23): 1.91 µM (inactive)
- GI50 (NCI/ADR-RES): 4.61 µM (inactive)
- GI50 (OVCAR-4): 2.57 µM (inactive)
- GI50 (OVCAR-5): 3.01 µM (inactive)
- GI50 (OVCAR-8): 0.918 µM (active)
- GI50 (RPMI-8226): 0.306 µM (active)
- GI50 (SF-539): 1.2 µM (inactive)
- GI50 (SK-MEL-28): 2.49 µM (inactive)
- GI50 (SNB-75): 3.66 µM (inactive)
- GI50 (SW-620): 0.723 µM (active)
- GI50 (TK-10): 3.61 µM (inactive)
- GI50 (UACC-257): 2.72 µM (inactive)

SMILES: O=C(O)C1OC(Oc2cc(O)c3c(=O)cc(-c4ccc(O)cc4)oc3c2)C(O)C(O)C1O (stereo unspecified)
- GI50 (COLO 205): > 100 µM (inactive)
- GI50 (DLD-1): > 100 µM (inactive)
- GI50 (EKVX): > 100 µM (inactive)
- GI50 (NCI-H23): > 100 µM (inactive)
- GI50 (OVCAR-4): > 100 µM (inactive)
- GI50 (OVCAR-5): > 100 µM (inactive)
- GI50 (OVCAR-8): > 100 µM (inactive)
- GI50 (SF-539): > 100 µM (inactive)
- GI50 (SK-MEL-28): > 100 µM (inactive)
- GI50 (SNB-75): > 100 µM (inactive)
- GI50 (SW-620): > 100 µM (inactive)
- GI50 (TK-10): > 100 µM (inactive)
- GI50 (UACC-257): > 100 µM (inactive)

SMILES: CC(C)(C)c1cc(C(=O)/C=C/c2ccc(O)c(O)c2O)cc(C(C)(C)C)c1O
- GI50 (A498): 14 µM (inactive)
- GI50 (CCRF-CEM): 1.73 µM (inactive)
- GI50 (COLO 205): 11.8 µM (inactive)
- GI50 (DU-145): 10.5 µM (inactive)
- GI50 (EKVX): 4.83 µM (inactive)
- GI50 (MCF7): 4.6 µM (inactive)
- GI50 (MDA-MB-435): 6.89 µM (inactive)
- GI50 (NCI-H23): 4.03 µM (inactive)
- GI50 (NCI/ADR-RES): 1.69 µM (inactive)
- GI50 (OVCAR-4): 2.77 µM (inactive)
- GI50 (OVCAR-5): 17.5 µM (inactive)
- GI50 (OVCAR-8): 4.07 µM (inactive)
- GI50 (RPMI-8226): 1.59 µM (inactive)
- GI50 (SF-539): 2.92 µM (inactive)
- GI50 (SK-MEL-28): 5.01 µM (inactive)
- GI50 (SNB-75): 1.95 µM (inactive)
- GI50 (SW-620): 2.58 µM (inactive)
- GI50 (TK-10): 3.57 µM (inactive)
- GI50 (UACC-257): 3.05 µM (inactive)

Source: ChEMBL document CHEMBL1201862, “PubChem BioAssay data set” (2004)
